Experimental data reported in a melting point compilation (Tetko et al.; mined from patent text by program, amines drawn as free bases though some values may be those of a salt).

melting point	SMILES
59 to 64 °C	CC(C)c1ccc(Cc2ccc(CC#N)n2C)cc1
318 to 321 °C	O=C(c1c[nH]c(=O)[nH]1)c1ccco1
263 to 265 °C	COc1ccc(/C=C/S(=O)(=O)CS(=O)(=O)/C=C/c2ccc(OC)c([N+](=O)[O-])c2)cc1[N+](=O)[O-]
119 to 121 °C	CC(=O)N1CCS(=O)c2cccc(Cl)c2C1 (stereo not drawn)
155 to 157 °C	COc1ccccc1C(=O)NC1CCCn2c1nc(-c1ccncc1)cc2=O (racemic)
82 to 83 °C	CCOC(=O)c1cnc(SC)nc1NCc1ccc(OC)c(Cl)c1
162 to 164 °C	C=CCOc1ccccc1-c1ncc(C#N)c(=O)[nH]1
134 to 136 °C	CC(C)(OCc1cc2cc(C(F)(F)F)ccc2n1S(=O)(=O)c1ccccc1)C(=O)O
132 to 136 °C	CC(Cc1ccc(OCC(=O)O)cc1)NS(=O)(=O)c1ccc(Cl)cc1 (stereo not drawn)
127 °C	CC#CCOc1ccc(SC(C(=O)NO)c2cccc(Cl)c2)cc1 (stereo not drawn)
96 to 98 °C	CC(C)(C)OC(=O)NCCCCCC(=O)Nc1cccnc1
158 to 159 °C	Cc1c(NC(=O)CC(C)(C)C)cc2c(c1C)OC(C)(C)C2CCc1ccccc1 (stereo not drawn)
153 to 154 °C	NC(=O)c1c(OCc2ccccc2)ccc2ccccc12
158 to 164 °C	CCCN(CCCc1c[nH]c2c(OC)cccc12)C1COc2c(F)ccc(C(N)=O)c2C1 (stereo not drawn)
85 to 100 °C	CC(n1cncn1)C(O)(COc1ccc(F)cc1)C(C)(C)C (stereo not drawn)
150 to 151 °C	O=C1Nc2ccccc2SC1CCCCN1CCN(c2ccc(F)cc2)CC1 (stereo not drawn)
214 to 215 °C	COc1ccc2c(c1)CCC1C2C(OC(C)=O)CC2(C)C(OC(C)=O)CCC12 (stereo not drawn)
235 °C	CC(=O)c1ccc(-c2ccc(C(C)=O)s2)s1
215 °C	OCc1ccc(-c2ccc(OC3SCC(O)C(O)C3O)cn2)cc1 (stereo not drawn)
140 °C	Nc1cccc(Cc2nnn[nH]2)c1
144 to 146 °C	Cc1cc(I)ccc1Nc1c(-c2nnco2)ccc(F)c1F
225 to 228 °C	N#Cc1cnn(-c2ncc(C(F)(F)F)cc2Cl)c1C=CC(=O)O
183 to 185 °C	COc1ccc(-c2cc3cc(Cl)ccc3o2)cc1
261 to 263 °C	CCCCc1nc(C(=O)O)c(C(=O)O)[nH]1

melting point	SMILES
208 to 210 °C	C=C(C)C(=O)OCCNC(=O)Nc1ccc(C(=O)O)c(O)c1
135 °C	N=C(N)NCCCC(NC(=O)C(CS)Cc1ccccc1)C(=O)O (stereo not drawn)
139 to 141 °C	COc1ccc(C2CC(=O)N(C(=O)c3cncc(Br)c3)N2C)cc1OC1CCCC1 (stereo not drawn)
169 to 171 °C	CS(=O)(=O)c1ccc(-n2cc(-c3ccc(Cl)cc3)nc2-c2ccc(Cl)cc2)cc1
200 to 201 °C	CC(CS(=O)(=O)c1ccc(-c2ccc3c(c2)OCO3)cc1)N(O)C=O (stereo not drawn)
87 °C	CCOC(=O)c1cnn(-c2ccc(OCC(C)C)c(C#N)c2)c1Cl
170 °C	COC(=O)c1ccccc1NS(=O)(=O)c1nc2nc(C)cc(C)n2n1
267 to 268 °C	CC(C)S(=O)(=O)Nc1cccc2c3c([nH]c12)C(=O)CCC3
155 to 157 °C	CN1C(=O)C2(COc3cc4c(cc32)OCO4)c2c(Br)cccc21 (stereo not drawn)
150 to 152 °C	CNC(=O)N1N=C(c2ccc(NC(C)=O)cc2)c2cc3c(cc2CC1C)OCO3 (stereo not drawn)
167 to 168 °C	O=C(O)CC1CCCc2c1n(Cc1ccc(Cl)cc1)c1ccc(C(F)(F)F)cc21 (stereo not drawn)
248 to 250 °C	Nc1nc2c(sc(=O)n2C2OC(COC(=O)c3ccccc3)C(OC(=O)c3ccccc3)C2OC(=O)c2ccccc2)c(=O)[nH]1 (stereo not drawn)
110 °C	COC(=O)c1ccc(F)c2c1CC(N(CCCc1c[nH]c3ccc(F)cc13)C1CCC1)CO2 (stereo not drawn)
106 to 107 °C	Cc1oc(-c2ccccc2)nc1CCOc1ccc(CON=C(CCC(=O)O)c2ccccc2)cc1
78 to 80 °C	CC(=O)C1C=C(Br)C(=O)CO1 (stereo not drawn)
228 °C	CS(=O)(=O)NC(=O)c1cc(Oc2c(Cl)cc(Cl)cc2Cl)ccc1[N+](=O)[O-]
110 °C	COC(=O)c1ccc(OC(=O)CCCCCCCCC(=O)Oc2ccc(C(=O)OC)cc2)cc1
241 to 242 °C	Nc1c(C(=O)c2cc(-c3ccccc3)no2)[nH]c2cc(Cl)ccc12
144 °C	CC(C)CN(C)S(=O)(=O)c1cccc(-c2cc(-c3nc(-c4ccc(C(F)(F)F)cc4)cc(C(F)(F)F)n3)ccn2)c1
168 °C	O=C(O)COc1ccc(SCc2ccc(OCc3ccc(Cl)c(Cl)c3)cc2)c2c1CCC2
224 to 226 °C	O=C(O)c1cn(C2CC2)c2c(Br)c(F)c(F)cc2c1=O
115 to 117 °C	CC(C)(C)NC(=O)OC1CCN(c2cccc(C(F)(F)F)c2)C1=O (stereo not drawn)
126 to 128 °C	N#Cc1cc(Sc2ccc(Cl)c(Cl)c2)ccc1N
145 to 148 °C	CC(=CCO)c1ccc(-c2ccc(Br)cc2)cc1

melting point	SMILES
124 to 125 °C	COc1ccc2cc(Br)ccc2c1C(=O)N(C)C
89 to 90 °C	CC/C=C\CCCCCCCCCCOc1ccc(C(=O)O)o1
129 to 131 °C	CC(CS)C(=O)NC(CC(=O)O)C(=O)O (stereo not drawn)
185 to 187 °C	COc1nc(C)nc2c1-c1ccc(Cl)cc1C(c1ccccc1)=NC2
83 to 85 °C	NS(=O)(=O)OCCCOc1ccccc1
87 to 88 °C	COC1=C(OC)C(=O)C(CCCCCCc2ccc(O)cc2)=C(C)C1=O
162 to 164 °C	CSc1ccc(-c2ccc(C(CCC(=O)O)=NO)cc2)cc1
> 300 °C	N#Cc1cc(O)cc2cc(-c3ccc(O)c(F)c3)oc12
119 to 120 °C	CNC(=C[N+](=O)[O-])NCCSCc1csc(CN2CCCC2)n1
84 °C	CNC(=O)[C@@H]1C[C@@H](OC(C)(C)C)CN1S(=O)(=O)c1ccc(Cl)c(COc2cccc3c(-n4ccnc4)cc(C)nc23)c1Cl
69 to 72 °C	O=C1c2ccccc2COc2ccc(CCCCl)cc21
234 °C	CCOC(=O)C1=C(N)NC2=C(C(=O)CCC2)C1c1cccc(C(=O)OCC)c1 (stereo not drawn)
102 to 104 °C	CN(C)S(=O)(=O)c1ccc(C(F)(F)F)cc1[N+](=O)[O-]
45 to 47 °C	COc1cc2c(cc1O)C(OC)CN(Cc1ccccc1OC)C2 (stereo not drawn)
261 to 264 °C	CS(=O)(=O)c1ccc(C(Cc2ccc(F)cc2)C(=O)Nc2nc3ncccc3o2)cc1 (stereo not drawn)
192 °C	Cc1cccc(NC(=O)NCC(=O)N(CC(=O)OC2(C)CCCCC2)c2ccccc2)c1
126 to 127 °C	CCCCCCOc1cc(-c2cccc([N+](=O)[O-])c2)c(OCCCCCC)cc1-c1cccc([N+](=O)[O-])c1
135 °C	CCOC(=O)/C=C(C)/C=C/C=C(\C)C1=Cc2cc(C)ccc2OC1
238 to 240 °C	CC(=O)N[C@@H](CC(C)C)C(=O)N[C@@H](CC(C)C)C(=O)N[C@H]1CCCOC1OC(C)=O (stereo partly drawn)
152 to 154 °C	COc1ccc(C2CC=CCC2NC(=O)c2ccc(OCC3CC3)c(OCC3CC3)c2)cc1OC (stereo not drawn)
126 to 131 °C	COc1ccc([C@H]2CCc3ccccc3[C@@H]2C#N)cc1 (racemic)
69 to 70 °C	COCN1C(C)=C(C(=O)O)C(c2ccccc2C(F)(F)F)C(C(=O)OCOC(=O)C(C)(C)C)=C1C (single isomer, unassigned; (+))
138 to 145 °C	COc1ccc(CNc2ccncc2)c2c1OCC2C (stereo not drawn)
78 to 86 °C	CC(=Nc1c(C)cccc1C)C(C)=Nc1c(C)cccc1C

melting point	SMILES
87 to 90 °C	CC(C(=O)c1ccc(OCc2ccccc2)c(OCc2ccccc2)c1)N1CCC(n2c(=O)[nH]c3ccccc32)CC1 (stereo not drawn)
245 to 247 °C	CCCOc1ccccc1C1=NC(=O)C2=NC(SC)=NC2=N1
112 to 114 °C	CCCNC(=O)C1(CCCCSc2nc3ccc(OCC)cc3s2)c2ccccc2-c2ccccc21
99 to 100 °C	CCCOc1cc(CC)c(C(=O)OC)c(C(=O)O)c1
186 to 188 °C	Nc1nc2ccc(CCN3CCC(C(=O)c4ccccc4)CC3)cc2s1
175 to 179 °C	C[C@@H](N[C@@H](Cc1c[nH]cn1)C(=O)O)[C@H](NC(=O)[C@@H](N)CCCCN)C(=O)O
160 to 162 °C	CCON=C(CC)C1=C(O)CC(c2ccc3c(c2)OCC(=O)N3)CC1=O (stereo not drawn)
236 to 239 °C	O=c1[nH]c2c(Cl)sc(Cl)c2c(=O)c2cscc12
182 to 186 °C	C=CCc1cn2c(=O)c(C(=O)OCC)cnc2c2cc(OC)ccc12
122 to 124 °C	NC1CCCN(c2ncc3ncnc(Nc4ccc(F)c(Cl)c4)c3n2)CC1 (stereo not drawn)
102 °C	COC(=O)c1cc(Cl)cc(O)c1O
35.5 to 37 °C	O=C1C[C@@H]2O[C@@H](CSc3ccccc3)CN12 (racemic)
184 °C	O=C(NC(Cc1ccccc1)C(=O)O)c1ccc(-c2cnc(OCc3ccccc3)nc2)cc1 (stereo not drawn)
61 to 62 °C	CCOC(=O)Nc1cc(F)cc(CCCCC(=O)OC)c1
151 °C	COc1cc2c(cc1OC)NC(C)C(=O)N2 (stereo not drawn)
140 °C	O=c1c(-c2ccccc2)ccc2n1CCc1ccccc1-2
97 to 98 °C	COC(=O)CCc1ccc(OCc2sc3ccccc3c2Cl)cc1
184 °C	O=C(CN1CCN(C(c2ccc(F)cc2)c2ccc(F)cc2)CC1)NC1(C(=O)O)Cc2ccc(-c3ccc(Cl)cc3)cc2C1 (stereo not drawn)
186 to 187 °C	O=C1CC2Cc3c(Cl)cccc3C2N1 (stereo not drawn)
142 to 147 °C	Cc1sc(-c2ccc(C(F)(F)F)cc2)nc1CCOc1ccc(CCC(=O)O)cc1
110 to 112 °C	CCOC(=O)c1cn(C(=O)c2ccccc2)c2sc(-c3ccc(OC)cc3)c(C)c2c1=O
160 to 162 °C	Cc1ccc(NC(=O)c2ccc(CN3CCC[C@H](N(C)C)C3)c(C(F)(F)F)c2)cc1Nc1nccc(-c2cncnc2)n1
199 to 200 °C	O=C(Nc1cccc2c(CCO)c(Br)cnc12)c1c(Cl)cccc1Cl

SMILES	melting point
O=C(Nc1cccc(S(=O)(=O)Nc2ccccc2)c1)NC1N=C(c2ccccc2F)c2ccccc2N(CC(=O)N2CC3CCC(CC3)C2)C1=O (racemic)	181 to 188 °C
CC(=Cc1ccc(N(C)C)cc1C)[N+](=O)[O-]	75 to 76 °C
Cc1nnc2n1-c1ccc(Cl)cc1C(N1CCCCC1)=NC2	238 to 243 °C
